According to US12077503B2, “Substituted cyclic amides and their use as herbicides” (FMC CORPORATION, priority 2015, dated 2024):

Assays:
Type in all cases: in vivo
[1] = test system: barnyardgrass (Echinochloa crus-galli); test: Test G Pre-Emergence Protocol; conditions: Echinochloa crus-galli, pre-emergence, 312 h, evaluated after 13 days; for pest or weed control at 15.625 g/ha: 15.625 g ai/ha, read-out: Barnyard grass damage rating (100=total damage to plant; 0=no damage to plant); for pest or weed control at 62.5 g/ha: 62.5 g ai/ha, 100=total damage to plant, 0=no damage to plant, read-out: plant damage rating, Barnyardgrass; for pest or weed control at 250 g/ha: 250 g ai/ha, read-out: Barnyardgrass damage rating (100=total damage to plant; 0=no damage to plant)
Outline: (§1)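 Under a 24/16° C day/night regime with 14 h light and 65% humidity, sown pots were sprayed after one day with compound (15.625, 62.5 or 250 g/ha; 50:50 acetone/water, 0.5% Tween 20). Damage was assessed visually 13 days later, 0 to 100.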

corn (Zea mays) [2] = test: Test G Pre-Emergence Protocol; conditions: Zea mays, pre-emergence, 312 h, evaluated after 13 days; for plant injury at 15.625 g/ha: 15.625 g ai/ha; for plant injury at 15.625 g/ha / plant injury at 250 g/ha: read-out: Corn damage rating (100=total damage to plant; 0=no damage to plant); for plant injury at 62.5 g/ha: 62.5 g ai/ha, 100=total damage to plant, 0=no damage to plant, read-out: plant damage rating, Corn; for plant injury at 250 g/ha: 250 g ai/ha
Outline: as §1

[3] = test system: giant foxtail (Setaria faberi); test: Test G Pre-Emergence Protocol; conditions: Setaria faberi, pre-emergence, 312 h, evaluated after 13 days; for pest or weed control at 15.625 g/ha: 15.625 g ai/ha; for pest or weed control at 15.625 g/ha / pest or weed control at 250 g/ha: read-out: Foxtail, Giant damage rating (100=total damage to plant; 0=no damage to plant); for pest or weed control at 62.5 g/ha: 62.5 g ai/ha, 100=total damage to plant, 0=no damage to plant, read-out: plant damage rating, Foxtail, Giant; for pest or weed control at 250 g/ha: 250 g ai/ha
Outline: as §1

[4] = test system: ivy-leaved morning glory (Ipomoea hederacea); test: Test G Pre-Emergence Protocol; conditions: Ipomoea, pre-emergence, 312 h, evaluated after 13 days; for pest or weed control at 15.625 g/ha: 15.625 g ai/ha, read-out: Morning-glory, Ivy-leaved damage rating (100=total damage to plant; 0=no damage to plant); for pest or weed control at 62.5 g/ha: 62.5 g ai/ha, 100=total damage to plant, 0=no damage to plant, read-out: plant damage rating, Morningglory, Ivy-leaved; for pest or weed control at 250 g/ha: 250 g ai/ha, read-out: Morningglory, Ivy-leaved damage rating (100=total damage to plant; 0=no damage to plant)
Outline: as §1

[5] = test system: redroot pigweed (Amaranthus retroflexus); test: Test G Pre-Emergence Protocol; conditions: Amaranthus retroflexus, pre-emergence, 312 h, evaluated after 13 days; for pest or weed control at 15.625 g/ha: 15.625 g ai/ha; for pest or weed control at 15.625 g/ha / pest or weed control at 250 g/ha: read-out: Pigweed, Redroot damage rating (100=total damage to plant; 0=no damage to plant); for pest or weed control at 62.5 g/ha: 62.5 g ai/ha, 100=total damage to plant, 0=no damage to plant, read-out: plant damage rating, Pigweed, Redroot; for pest or weed control at 250 g/ha: 250 g ai/ha
Outline: as §1

[6] = test system: velvetleaf (Abutilon theophrasti); test: Test G Pre-Emergence Protocol; conditions: Abutilon theophrasti, pre-emergence, 312 h, evaluated after 13 days; for pest or weed control at 15.625 g/ha: 15.625 g ai/ha; for pest or weed control at 15.625 g/ha / pest or weed control at 250 g/ha: read-out: Velvetleaf damage rating (100=total damage to plant; 0=no damage to plant); for pest or weed control at 62.5 g/ha: 62.5 g ai/ha, 100=total damage to plant, 0=no damage to plant, read-out: plant damage rating, Velvetleaf; for pest or weed control at 250 g/ha: 250 g ai/ha
Outline: as §1

[7] = test system: barnyardgrass (Echinochloa crus-galli); test: Test G Post-Emergence Protocol; conditions: Echinochloa crus-galli, post-emergence, 312 h; for pest or weed control at 15.625 g/ha: 15.625 g ai/ha, evaluated after 13 days (100=total damage to plant; 0=no damage to plant), read-out: Barnyardgrass damage rating; for pest or weed control at 62.5 g/ha: 62.5 g ai/ha, read-out: Barnyardgrass damage rating (100=total damage to plant; 0=no damage to plant); for pest or weed control at 62.5 g/ha / pest or weed control at 250 g/ha: evaluated after 13 days; for pest or weed control at 250 g/ha: 250 g ai/ha, read-out: damage to plant, Barnyardgrass (100=total damage to plant; 0=no damage to plant)
Outline: (§2)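 Foliar application was made 8 days after sowing, using an aqueous spray of the active in acetone/water (50:50) with 0.5% Tween 20, at doses of 15.625, 62.5 or 250 g/ha. Injury was assessed 13 days later, where 100 meant the plant was fully damaged.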

corn (Zea mays) [8] = test: Test G Post-Emergence Protocol; conditions: Zea mays, post-emergence, 312 h; for plant injury at 15.625 g/ha: 15.625 g ai/ha, evaluated after 13 days (100=total damage to plant; 0=no damage to plant), read-out: Corn damage rating; for plant injury at 62.5 g/ha: 62.5 g ai/ha, read-out: Corn damage rating (100=total damage to plant; 0=no damage to plant); for plant injury at 62.5 g/ha / plant injury at 250 g/ha: evaluated after 13 days; for plant injury at 250 g/ha: 250 g ai/ha, read-out: damage to plant, Corn (100=total damage to plant; 0=no damage to plant)
Outline: as §2

[9] = test system: giant foxtail (Setaria faberi); test: Test G Post-Emergence Protocol; conditions: Setaria faberi, post-emergence, 312 h; for pest or weed control at 15.625 g/ha: 15.625 g ai/ha, evaluated after 13 days (100=total damage to plant; 0=no damage to plant), read-out: Foxtail, Giant damage rating; for pest or weed control at 62.5 g/ha: 62.5 g ai/ha, read-out: Foxtail, Giant damage rating (100=total damage to plant; 0=no damage to plant); for pest or weed control at 62.5 g/ha / pest or weed control at 250 g/ha: evaluated after 13 days; for pest or weed control at 250 g/ha: 250 g ai/ha, read-out: damage to plant, Foxtail, Giant (100=total damage to plant; 0=no damage to plant)
Outline: as §2

[10] = test system: ivy-leaved morning glory (Ipomoea hederacea); test: Test G Post-Emergence Protocol; conditions: Ipomoea, post-emergence, 312 h; for pest or weed control at 15.625 g/ha: 15.625 g ai/ha, evaluated after 13 days (100=total damage to plant; 0=no damage to plant), read-out: Morningglory, Ivy-leaved damage rating; for pest or weed control at 62.5 g/ha: 62.5 g ai/ha, read-out: Morningglory, Ivy-leaved damage rating (100=total damage to plant; 0=no damage to plant); for pest or weed control at 62.5 g/ha / pest or weed control at 250 g/ha: evaluated after 13 days; for pest or weed control at 250 g/ha: 250 g ai/ha, read-out: damage to plant, Morningglory, Ivy-leaved (100=total damage to plant; 0=no damage to plant)
Outline: as §2

[11] = test system: redroot pigweed (Amaranthus retroflexus); test: Test G Post-Emergence Protocol; conditions: Amaranthus retroflexus, post-emergence, 312 h; for pest or weed control at 15.625 g/ha: 15.625 g ai/ha, evaluated after 13 days (100=total damage to plant; 0=no damage to plant), read-out: Pigweed, Redroot damage rating; for pest or weed control at 62.5 g/ha: 62.5 g ai/ha, read-out: Pigweed, Redroot damage rating (100=total damage to plant; 0=no damage to plant); for pest or weed control at 62.5 g/ha / pest or weed control at 250 g/ha: evaluated after 13 days; for pest or weed control at 250 g/ha: 250 g ai/ha, read-out: damage to plant, Pigweed, Redroot (100=total damage to plant; 0=no damage to plant)
Outline: as §2

[12] = test system: velvetleaf (Abutilon theophrasti); test: Test G Post-Emergence Protocol; conditions: Abutilon theophrasti, post-emergence, 312 h; for pest or weed control at 15.625 g/ha: 15.625 g ai/ha, evaluated after 13 days (100=total damage to plant; 0=no damage to plant), read-out: Velvetleaf damage rating; for pest or weed control at 62.5 g/ha: 62.5 g ai/ha, read-out: Velvetleaf damage rating (100=total damage to plant; 0=no damage to plant); for pest or weed control at 62.5 g/ha / pest or weed control at 250 g/ha: evaluated after 13 days; for pest or weed control at 250 g/ha: 250 g ai/ha, read-out: damage to plant, Velvetleaf (100=total damage to plant; 0=no damage to plant)
Outline: as §2

`Cc1cc(Cl)ccc1NC(=O)[C@H]1C(=O)N(C)C[C@@H]1c1ccc(C(F)(F)F)cc1` (racemic) [Compound 1442] showed a pest or weed control at 15.625 g/ha [1] of 0%, a pest or weed control at 62.5 g/ha [1] of 0% and a pest or weed control at 250 g/ha [1] of 0%. For the same molecule, the plant injury at 15.625 g/ha (corn (Zea mays) [2]) was 0%, the plant injury at 62.5 g/ha (corn (Zea mays) [2]) was 0% and the plant injury at 250 g/ha (corn (Zea mays) [2]) was 0%. It also gave a pest or weed control at 15.625 g/ha [3] of 0%, a pest or weed control at 62.5 g/ha [3] of 0% and a pest or weed control at 250 g/ha [3] of 30%. For the same molecule, the pest or weed control at 15.625 g/ha [4] was 0%, the pest or weed control at 62.5 g/ha [4] was 0% and the pest or weed control at 250 g/ha [4] was 0%. The pest or weed control at 15.625 g/ha [5] was 0%, the pest or weed control at 62.5 g/ha [5] was 0% and the pest or weed control at 250 g/ha [5] was 10%. The pest or weed control at 15.625 g/ha [6] was 0%, the pest or weed control at 62.5 g/ha [6] was 0% and the pest or weed control at 250 g/ha [6] was 10%. It also gave a pest or weed control at 15.625 g/ha [7] of 0%, a pest or weed control at 62.5 g/ha [7] of 0% and a pest or weed control at 250 g/ha [7] of 0%. The plant injury at 15.625 g/ha (corn (Zea mays) [8]) was 0%, the plant injury at 62.5 g/ha (corn (Zea mays) [8]) was 0% and the plant injury at 250 g/ha (corn (Zea mays) [8]) was 0%. The pest or weed control at 15.625 g/ha [9] was 0%, the pest or weed control at 62.5 g/ha [9] was 0% and the pest or weed control at 250 g/ha [9] was 0%. It also gave a pest or weed control at 15.625 g/ha [10] of 0%, a pest or weed control at 62.5 g/ha [10] of 0% and a pest or weed control at 250 g/ha [10] of 0%. For the same molecule, the pest or weed control at 15.625 g/ha [11] was 0%, the pest or weed control at 62.5 g/ha [11] was 0% and the pest or weed control at 250 g/ha [11] was 0%. The pest or weed control at 15.625 g/ha [12] was 0%, the pest or weed control at 62.5 g/ha [12] was 0% and the pest or weed control at 250 g/ha [12] was 0%.

Work on `CN1C[C@@H](c2ccc(C(F)(F)F)cc2)[C@H](C(=O)Nc2cccc(F)n2)C1=O` [Compound 1489] yielded a pest or weed control at 15.625 g/ha [1] of 0%, a pest or weed control at 62.5 g/ha [1] of 0% and a pest or weed control at 250 g/ha [1] of 0%. It also gave a plant injury at 15.625 g/ha (corn (Zea mays) [2]) of 0%, a plant injury at 62.5 g/ha (corn (Zea mays) [2]) of 0% and a plant injury at 250 g/ha (corn (Zea mays) [2]) of 0%. It also gave a pest or weed control at 15.625 g/ha [3] of 0%, a pest or weed control at 62.5 g/ha [3] of 0% and a pest or weed control at 250 g/ha [3] of 0%. It also gave a pest or weed control at 15.625 g/ha [4] of 0%, a pest or weed control at 62.5 g/ha [4] of 0% and a pest or weed control at 250 g/ha [4] of 0%. The pest or weed control at 15.625 g/ha [5] was 0%, the pest or weed control at 62.5 g/ha [5] was 0% and the pest or weed control at 250 g/ha [5] was 100%. The pest or weed control at 15.625 g/ha [6] was 0%, the pest or weed control at 62.5 g/ha [6] was 0% and the pest or weed control at 250 g/ha [6] was 0%. The pest or weed control at 15.625 g/ha [7] was 0%, the pest or weed control at 62.5 g/ha [7] was 0% and the pest or weed control at 250 g/ha [7] was 30%. It also gave a plant injury at 15.625 g/ha (corn (Zea mays) [8]) of 10%, a plant injury at 62.5 g/ha (corn (Zea mays) [8]) of 10% and a plant injury at 250 g/ha (corn (Zea mays) [8]) of 40%. For the same molecule, the pest or weed control at 15.625 g/ha [9] was 0%, the pest or weed control at 62.5 g/ha [9] was 0% and the pest or weed control at 250 g/ha [9] was 40%. For the same molecule, the pest or weed control at 15.625 g/ha [10] was 0%, the pest or weed control at 62.5 g/ha [10] was 0% and the pest or weed control at 250 g/ha [10] was 0%. The pest or weed control at 15.625 g/ha [11] was 0%, the pest or weed control at 62.5 g/ha [11] was 0% and the pest or weed control at 250 g/ha [11] was 10%. For the same molecule, the pest or weed control at 15.625 g/ha [12] was 0%, the pest or weed control at 62.5 g/ha [12] was 0% and the pest or weed control at 250 g/ha [12] was 0%.
